For one experiment, the target named is cdk2/cyclinE (Homo sapiens, UniProt P24941). Kind of experiment: Cyclin-Dependent Kinase Assay cdk2/cyclinE.
Another experiment concerns the target cdk4/D (Homo sapiens, UniProt P11802). Kind of experiment: Cyclin-Dependent Kinase 4 (cdk4) Assay. The experiment is classed as biochemical. The note with it: read-out: cdk4/D IC50.
For the next experiment, the target named is cdk2/cyclinA (Homo sapiens, UniProt P24941). The experiment is described as follows: Cyclin-Dependent Kinase Assay cdk2/cyclinA.
A further experiment deals with cdc2/cyclinB (Homo sapiens, UniProt P06493). The experiment is described as follows: Cyclin-Dependent Kinase Assay cdc2/cyclinB.
cdc2/cyclinB, sequence (P06493 whole entry): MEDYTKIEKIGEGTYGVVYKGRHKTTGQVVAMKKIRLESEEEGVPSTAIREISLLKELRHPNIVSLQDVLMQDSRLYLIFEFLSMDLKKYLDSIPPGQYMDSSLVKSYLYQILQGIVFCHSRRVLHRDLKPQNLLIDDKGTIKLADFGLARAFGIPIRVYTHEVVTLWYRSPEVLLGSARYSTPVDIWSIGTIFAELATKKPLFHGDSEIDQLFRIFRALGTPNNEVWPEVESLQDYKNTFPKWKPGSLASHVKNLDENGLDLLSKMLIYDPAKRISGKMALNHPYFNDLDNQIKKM
cdc2/cyclinB, sequence (P14635 whole entry, further chain): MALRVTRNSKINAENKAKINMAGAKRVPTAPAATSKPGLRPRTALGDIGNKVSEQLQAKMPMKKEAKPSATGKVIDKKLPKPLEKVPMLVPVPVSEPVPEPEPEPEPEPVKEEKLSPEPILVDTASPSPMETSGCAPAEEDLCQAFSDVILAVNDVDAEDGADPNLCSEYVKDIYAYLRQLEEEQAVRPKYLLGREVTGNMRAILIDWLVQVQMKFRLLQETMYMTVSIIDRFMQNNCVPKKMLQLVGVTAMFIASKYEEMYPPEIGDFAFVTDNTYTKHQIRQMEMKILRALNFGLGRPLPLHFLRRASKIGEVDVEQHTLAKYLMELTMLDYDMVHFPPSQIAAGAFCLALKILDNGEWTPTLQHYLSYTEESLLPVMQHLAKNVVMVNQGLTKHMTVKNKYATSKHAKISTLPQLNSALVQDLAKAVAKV
In the next experiment the target is Cdk5/p25 (Homo sapiens, UniProt Q00535). Kind of experiment: Cyclin-Dependent Kinase 5 High Throughput Screening (cdk5-HTS) Assay. The experiment is classed as biochemical. The note with it: high throughput screen. The essentials: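 IC50 determined from 33P incorporation into GST-RbCOOH captured on glutathione plates and read by scintillation counting. Reaction: 1.0 μg/mL Cdk5/p25, 20 μM [γ33P]ATP, pH 7.4 Tris buffer with MgCl2 and DTT, 30 min at room temperature, stopped with EDTA.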

Here are results for 24 molecules from patent US20040224958A1, “Pyridopyrimidinone derivatives for treatment of neurodegenerative disease” (priority 2000, published 2004).

SMILES strings stand for the structures. Read-outs that look alike come from different tables or passages of the source.

cdk4/D, sequence (P11802 whole entry): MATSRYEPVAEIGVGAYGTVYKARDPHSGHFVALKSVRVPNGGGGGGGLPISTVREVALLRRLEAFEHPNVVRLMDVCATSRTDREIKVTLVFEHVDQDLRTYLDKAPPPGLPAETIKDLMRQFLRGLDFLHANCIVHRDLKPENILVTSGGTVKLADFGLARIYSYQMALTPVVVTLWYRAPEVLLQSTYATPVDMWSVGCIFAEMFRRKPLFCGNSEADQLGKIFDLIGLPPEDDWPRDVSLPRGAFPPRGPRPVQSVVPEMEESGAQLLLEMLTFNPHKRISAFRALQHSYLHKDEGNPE
cdk4/D, sequence (P24385 whole entry, further chain): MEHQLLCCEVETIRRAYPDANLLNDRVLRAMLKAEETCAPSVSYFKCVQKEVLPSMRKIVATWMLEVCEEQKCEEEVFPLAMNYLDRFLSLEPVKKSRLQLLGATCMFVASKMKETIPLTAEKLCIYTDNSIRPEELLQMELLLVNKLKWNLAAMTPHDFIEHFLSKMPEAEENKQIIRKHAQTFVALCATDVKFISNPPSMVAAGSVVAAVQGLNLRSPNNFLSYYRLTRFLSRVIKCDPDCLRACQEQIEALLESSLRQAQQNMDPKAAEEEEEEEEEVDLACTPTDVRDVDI

Consider `CCCCn1c(=O)ccc2cnc(Nc3ccccc3)nc21` [Example 364, 8-Butyl-2-phenylamino-8H-pyrido[2,3-d]pyrimidin-7-one], for which the IC50 against cdk2/cyclinE (cdk2/E IC50) turned out to be 60.3 nM; at cdk4/D, 240 nM; against cdk2/cyclinA (cdk2/A IC50), 255 nM; against cdc2/cyclinB it was 200 nM; against Cdk5/p25 it was 87.5 nM.
The corresponding values for `CCCCn1c(=O)ccc2cnc(Nc3ccc(OC)c(Cl)c3)nc21` [Example 365, 8-Butyl-2-(3-chloro-4-methoxy-phenylamino)-8H-pyrido[2,3-d]pyrimidin-7-one] are 122 nM, 475 nM, 446 nM, 204 nM and 59.8 nM.
The corresponding values for `CCCCn1c(=O)ccc2cnc(Nc3ccc(F)cc3F)nc21` [Example 368, 8-Butyl-2-(2,4-difluoro-phenylamino)-8H-pyrido[2,3-d]pyrimidin-7-one] are 836 nM, 3010 nM, 3060 nM, 1360 nM and 723 nM.
The corresponding values for `CCCn1c(=O)ccc2cnc(Nc3ccc(F)c(Cl)c3)nc21` [Example 369, 2-(3-Chloro-4-fluoro-phenylamino)-8-propyl-8H-pyrido[2,3-d]pyrimidin-7-one] are 71.9 nM, 526 nM, 287 nM, 129 nM and 85.3 nM.
`CCCCn1c(=O)ccc2cnc(Nc3ccc(N(C)C(C)=O)cc3)nc21` [Example 370, N-[4-(8-Butyl-7-oxo-7,8-dihydro-pyrido[2,3-d]pyrimidin-2-ylamino)-phenyl]-N-methyl-acetamide]: the IC50 against cdk2/cyclinE (cdk2/E IC50) was 1280 nM; on cdk4/D, 1140 nM; on cdk2/cyclinA (cdk2/A IC50) it was 610 nM; at cdc2/cyclinB it was 808 nM; against Cdk5/p25 it was 917 nM.
As to `CCCCn1c(=O)ccc2cnc(Nc3ccc(C(N)=O)cc3)nc21` [Example 371, 4-(S-Butyl-7-oxo-7,8-dihydro-pyrido[2,3-d]pyrimidin-2-ylamino)-benzamide], the IC50 worked out at 286 nM on cdk2/cyclinE (read-out: cdk2/E IC50); 331 nM at cdk4/D; 699 nM at cdk2/cyclinA (read-out: cdk2/A IC50); 372 nM at cdc2/cyclinB (read-out: cdk1/B IC50); 234 nM at Cdk5/p25.
On to `CCCCn1c(=O)ccc2cnc(Nc3cccc(C(F)(F)F)c3)nc21` [Example 373, 8-Butyl-2-(3-trifluoromethyl-phenylamino)-8H-pyrido[2,3-d]pyrimidin-7-one], for which the IC50 against cdk2/cyclinE (cdk2/E IC50) came to 208 nM; on cdk4/D it was 2150 nM; against cdk2/cyclinA (cdk2/A IC50) it was 1150 nM; against cdc2/cyclinB, 430 nM; on Cdk5/p25 it was 214 nM.
For `CCCCn1c(=O)ccc2cnc(Nc3ccc(Br)c(C(F)(F)F)c3)nc21` [Example 374, 2-(4-Bromo-3-trifluoromethyl-phenylamino)-8-butyl-8H-pyrido[2,3-d]pyrimidin-7-one], the IC50 came to 668 nM against cdk2/cyclinE (cdk2/E IC50); 2940 nM at cdk4/D; 2880 nM against cdk2/cyclinA (cdk2/A IC50); 949 nM on cdc2/cyclinB; 379 nM on Cdk5/p25.
`CCCCn1c(=O)ccc2cnc(Nc3cccc(I)c3)nc21` [Example 375, 8-Butyl-2-(3-iodo-phenylamino)-8H-pyrido[2,3-d]pyrimidin-7-one]: the IC50 was found to be 48.9 nM against cdk2/cyclinE (cdk2/E IC50); 720 nM on cdk4/D; 408 nM against cdk2/cyclinA (cdk2/A IC50); 107 nM against cdc2/cyclinB; 84.7 nM against Cdk5/p25.
Consider `CCCn1c(=O)ccc2cnc(Nc3ccc(C)c(F)c3)nc21` [Example 376, 2-(3-Fluoro-4-methyl-phenylamino)-8-propyl-8H-pyrido[2,3-d]pyrimidin-7-one], for which the IC50 amounted to 400 nM at cdk2/cyclinE (cdk2/E IC50); 380 nM on cdk4/D; 1180 nM at cdk2/cyclinA (cdk2/A IC50); 275 nM at cdc2/cyclinB; 131 nM against Cdk5/p25.
The like results for `CCCCn1c(=O)ccc2cnc(Nc3ccc(C)c(C)c3)nc21` [Example 377, 8-Butyl-2-(3,4-dimethyl-phenylamino)-8H-pyrido[2,3-d]pyrimidin-7-one] were, in that order, 228 nM, 510 nM, 1100 nM, 313 nM and 201 nM.
The corresponding values for `CCCCn1c(=O)ccc2cnc(Nc3ccc4[nH]ccc4c3)nc21` [Example 378, 8-Butyl-2-(1H-indol-5-ylamino)-8H-pyrido[2,3-d]pyrimidin-7-one] are 86 nM, 97.5 nM, 340 nM, 150 nM and 96.5 nM.
The like results for `CCCCn1c(=O)ccc2cnc(Nc3ccc4[nH]ncc4c3)nc21` [Example 379, 8-Butyl-2-(1H-indazol-5-ylamino)-8H-pyrido[2,3-d]pyrimidin-7-one] were, in that order, 27.3 nM, 140 nM, 84 nM, 43 nM and 46.5 nM.
In the case of `CCCCn1c(=O)ccc2cnc(Nc3ccc4[nH]nnc4c3)nc21` [Example 380, 2-(1H-Benzotriazol-5-ylamino)-8-butyl-8H-pyrido[2,3-d]pyrimidin-7-one], the IC50 on cdk2/cyclinE (cdk2/E IC50) came out at 26 nM; on cdk4/D, 285 nM; on cdk2/cyclinA (cdk2/A IC50) it was 83 nM; against cdc2/cyclinB, 59 nM; against Cdk5/p25, 32.5 nM.
The corresponding values for `CCCCn1c(=O)ccc2cnc(Nc3ccc(NC(=O)OC(C)(C)C)cc3)nc21` [Example 381, [4-(8-Butyl-7-oxo-7,8-dihydro-pyrido[2,3-d]pyrimidin-2-ylamino)-phenyl]-carbamic acid tert-butyl ester] are 133 nM, 400 nM, 515 nM, 150 nM and 205 nM.
Consider `CCCCn1c(=O)ccc2cnc(Nc3ccc(O)cc3F)nc21` [Example 382, 8-Butyl-2-(2-fluoro-4-hydroxy-phenylamino)-8H-pyrido[2,3-d]pyrimidin-7-one], for which the IC50 at cdk2/cyclinE (cdk2/E IC50) came to 320 nM; at cdk4/D it was 670 nM; against cdk2/cyclinA (cdk2/A IC50), 1550 nM; at cdc2/cyclinB, 1300 nM; against Cdk5/p25, 590 nM.
Take `CCCCn1c(=O)ccc2cnc(Nc3ccc(O)c(Cl)c3)nc21` [Example 383, 8-Butyl-2-(3-chloro-4-hydroxy-phenylamino)-8H-pyrido[2,3-d]pyrimidin-7-one]: the IC50 on cdk2/cyclinE (cdk2/E IC50) turned out to be 25.3 nM; at cdk4/D, 160 nM; on cdk2/cyclinA (cdk2/A IC50) it was 96.5 nM; on cdc2/cyclinB, 45.5 nM; on Cdk5/p25 it was 46.5 nM.
The like results for `CCCCn1c(=O)ccc2cnc(Nc3cc(Cl)c(O)c(Cl)c3)nc21` [Example 384, 8-Butyl-2-(3,5-dichloro-4-hydroxy-phenylamino)-8H-pyrido[2,3-d]pyrimidin-7-one] were, in that order, 25.7 nM, 1130 nM, 98.5 nM, 115 nM and 91.5 nM.
The corresponding values for `CCCCn1c(=O)ccc2cnc(Nc3ccc(OC)cc3)nc21` [Example 385, 8-Butyl-2-(4-methoxy-phenylamino)-8H-pyrido[2,3-d]pyrimidin-7-one] are 150 nM, 1140 nM, 320 nM, 155 nM and 130 nM.
As for `CCCCn1c(=O)ccc2cnc(Nc3ccc(OC)c(OC)c3)nc21` [Example 386, 8-Butyl-2-(3,4-dimethoxy-phenylamino)-8H-pyrido[2,3-d]pyrimidin-7-one], the IC50 against cdk2/cyclinE (cdk2/E IC50) was found to be 90.7 nM; at cdk4/D it was 620 nM; on cdk2/cyclinA (cdk2/A IC50), 200 nM; on cdc2/cyclinB, 83 nM; on Cdk5/p25, 23.5 nM.
For `CCCCn1c(=O)ccc2cnc(Nc3ccc(F)cc3)nc21` [Example 387, 8-Butyl-2-(4-fluoro-phenylamino)-8H-pyrido[2,3-d]pyrimidin-7-one], the IC50 at cdk2/cyclinE (cdk2/E IC50) worked out at 80 nM; on cdk4/D, 285 nM; against cdk2/cyclinA (cdk2/A IC50) it was 160 nM; against cdc2/cyclinB, 128 nM; at Cdk5/p25, 108 nM.
Turning to `CCCCn1c(=O)ccc2cnc(Nc3ccc(Cl)c(C)c3)nc21` [Example 388, 8-Butyl-2-(4-chloro-3-methyl-phenylamino)-8H-pyrido[2,3-d]pyrimidin-7-one], the IC50 is 100 nM on cdk2/cyclinE (cdk2/E IC50); 310 nM on cdk4/D; 690 nM on cdk2/cyclinA (cdk2/A IC50); 200 nM at cdc2/cyclinB; 110 nM against Cdk5/p25.
As to `CCCCn1c(=O)ccc2cnc(Nc3ccc(F)c(C(F)(F)F)c3)nc21` [Example 390, 8-Butyl-2-(4-fluoro-3-trifluoromethyl-phenylamino)-8H-pyrido[2,3-d]pyrimidin-7-one], the IC50 stood at 85 nM at cdk2/cyclinE (cdk2/E IC50); 1100 nM at cdk4/D; 470 nM at cdk2/cyclinA (cdk2/A IC50); 220 nM against cdc2/cyclinB; 84 nM against Cdk5/p25.
The corresponding values for `CCCCn1c(=O)ccc2cnc(Nc3ccc(F)c(C)c3)nc21` [Example 392, 8-Butyl-2-(4-fluoro-3-methyl-phenylamino)-8H-pyrido[2,3-d]pyrimidin-7-one] are 77 nM, 760 nM, 360 nM, 140 nM and 110 nM.
